# Laboratory results published in PubChem BioAssay (NCI).
#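 Values below derive from 48-hour exposures of cells grown in 96-well plates, with endpoints linearly interpolated between the two concentrations bracketing the appropriate inhibition level. GI50: concentration for 50% inhibition of growth. TGI denotes the concentration required for complete inhibition of growth.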
# Experiments:
# Assay in all cases: inhibition of tumour cell growth, NCI panel, 48 h
# SN12C renal = test system: SN12C renal
# 786-0 renal = test system: 786-0 renal
# SNB-19 CNS = test system: SNB-19 CNS
# RXF 393 renal = test system: RXF 393 renal
# HT29 colon = test system: HT29 colon
# CCRF-CEM leukemia = test system: CCRF-CEM leukemia
# SK-OV-3 ovarian = test system: SK-OV-3 ovarian
# UACC-62 melanoma = test system: UACC-62 melanoma
# MCF7 breast = test system: MCF7 breast
# SF-268 CNS = test system: SF-268 CNS
# PC-3 prostate = test system: PC-3 prostate
# HCT-116 colon = test system: HCT-116 colon
# CAKI-1 renal = test system: CAKI-1 renal
# MOLT-4 leukemia = test system: MOLT-4 leukemia
# HCT-15 colon = test system: HCT-15 colon
# NCI/ADR-RES ovarian = test system: NCI/ADR-RES ovarian
# EKVX NSCLC = test system: EKVX NSCLC
# KM12 colon = test system: KM12 colon
# DU-145 prostate = test system: DU-145 prostate
# SR leukemia = test system: SR leukemia
# NCI-H226 lung = test system: NCI-H226 lung
# HOP-62 NSCLC = test system: HOP-62 NSCLC
# MALME-3M melanoma = test system: MALME-3M melanoma
# M14 melanoma = test system: M14 melanoma
# RPMI-8226 leukemia = test system: RPMI-8226 leukemia
# IGROV1 ovarian = test system: IGROV1 ovarian
# SW-620 colon = test system: SW-620 colon
# T-47D breast = test system: T-47D breast
# SK-MEL-28 melanoma = test system: SK-MEL-28 melanoma
# MDA-MB-435 = test system: MDA-MB-435
# SF-539 CNS = test system: SF-539 CNS
# OVCAR-8 ovarian = test system: OVCAR-8 ovarian
# BT-549 breast = test system: BT-549 breast
# HS 578T breast = test system: HS 578T breast
# A549 NSCLC = test system: A549 NSCLC
# K-562 leukemia = test system: K-562 leukemia
# UO-31 renal = test system: UO-31 renal
# OVCAR-5 ovarian = test system: OVCAR-5 ovarian
# SF-295 CNS = test system: SF-295 CNS
# TK-10 renal = test system: TK-10 renal
# HL-60(TB) leukemia = test system: HL-60(TB) leukemia
# NCI-H522 lung = test system: NCI-H522 lung
# LOX IMVI melanoma = test system: LOX IMVI melanoma
# SNB-75 CNS = test system: SNB-75 CNS
# MDA-MB-231 breast = test system: MDA-MB-231 breast
# UACC-257 melanoma = test system: UACC-257 melanoma
# COLO 205 colon = test system: COLO 205 colon
# SK-MEL-2 melanoma = test system: SK-MEL-2 melanoma
# OVCAR-4 ovarian = test system: OVCAR-4 ovarian
# ACHN renal = test system: ACHN renal
# NCI-H460 lung = test system: NCI-H460 lung
# HCC-2998 colon = test system: HCC-2998 colon
# U251 CNS = test system: U251 CNS
# A498 renal = test system: A498 renal
# OVCAR-3 ovarian = test system: OVCAR-3 ovarian
# NCI-H23 lung = test system: NCI-H23 lung
# SK-MEL-5 melanoma = test system: SK-MEL-5 melanoma
# HOP-92 NSCLC = test system: HOP-92 NSCLC
smiles,measurement,setting,value
Cc1cc(C)c(C(=O)CC(=O)c2cccnc2)c(C)c1,GI50,SN12C renal,9.35 µM
same,TGI,SN12C renal,> 100 µM
same,GI50,786-0 renal,9.45 µM
same,TGI,786-0 renal,50.1 µM
same,GI50,SNB-19 CNS,6.34 µM
same,TGI,SNB-19 CNS,> 100 µM
same,GI50,RXF 393 renal,10.7 µM
same,TGI,RXF 393 renal,60.2 µM
same,GI50,HT29 colon,4.85 µM
same,TGI,HT29 colon,> 100 µM
same,GI50,CCRF-CEM leukemia,4.1 µM
same,TGI,CCRF-CEM leukemia,45.8 µM
same,GI50,SK-OV-3 ovarian,9.04 µM
same,TGI,SK-OV-3 ovarian,> 100 µM
same,GI50,UACC-62 melanoma,4.52 µM
same,TGI,UACC-62 melanoma,41.8 µM
same,GI50,MCF7 breast,5.96 µM
same,TGI,MCF7 breast,> 100 µM
same,GI50,SF-268 CNS,10.5 µM
same,TGI,SF-268 CNS,> 100 µM
same,GI50,PC-3 prostate,8.73 µM
same,TGI,PC-3 prostate,> 100 µM
same,GI50,HCT-116 colon,4.31 µM
same,TGI,HCT-116 colon,> 100 µM
same,GI50,CAKI-1 renal,1.34 µM
same,TGI,CAKI-1 renal,5.52 µM
same,GI50,MOLT-4 leukemia,4.41 µM
same,TGI,MOLT-4 leukemia,38.4 µM
same,GI50,HCT-15 colon,3.36 µM
same,TGI,HCT-15 colon,> 100 µM
same,GI50,NCI/ADR-RES ovarian,2.29 µM
same,TGI,NCI/ADR-RES ovarian,9.88 µM
same,GI50,EKVX NSCLC,3.97 µM
same,TGI,EKVX NSCLC,69.6 µM
same,GI50,KM12 colon,8.01 µM
same,TGI,KM12 colon,> 100 µM
same,GI50,DU-145 prostate,12.2 µM
same,TGI,DU-145 prostate,> 100 µM
same,GI50,SR leukemia,2.81 µM
same,TGI,SR leukemia,33.2 µM
same,GI50,NCI-H226 lung,7.34 µM
same,TGI,NCI-H226 lung,86.8 µM
same,GI50,HOP-62 NSCLC,6.32 µM
same,TGI,HOP-62 NSCLC,> 100 µM
same,GI50,MALME-3M melanoma,14.1 µM
same,TGI,MALME-3M melanoma,> 100 µM
same,GI50,M14 melanoma,5.31 µM
same,TGI,M14 melanoma,33.9 µM
same,GI50,RPMI-8226 leukemia,5.31 µM
same,TGI,RPMI-8226 leukemia,> 100 µM
same,GI50,IGROV1 ovarian,4.39 µM
same,TGI,IGROV1 ovarian,> 100 µM
same,GI50,SW-620 colon,4.72 µM
same,TGI,SW-620 colon,> 100 µM
same,GI50,T-47D breast,10.2 µM
same,TGI,T-47D breast,> 100 µM
same,GI50,SK-MEL-28 melanoma,14 µM
same,TGI,SK-MEL-28 melanoma,> 100 µM
same,GI50,MDA-MB-435,7.48 µM
same,TGI,MDA-MB-435,> 100 µM
same,GI50,SF-539 CNS,6.93 µM
same,TGI,SF-539 CNS,45.7 µM
same,GI50,OVCAR-8 ovarian,4.58 µM
same,TGI,OVCAR-8 ovarian,> 100 µM
same,GI50,BT-549 breast,2.25 µM
same,TGI,BT-549 breast,33.9 µM
same,GI50,HS 578T breast,9.4 µM
same,TGI,HS 578T breast,> 100 µM
same,GI50,A549 NSCLC,6.97 µM
same,TGI,A549 NSCLC,> 100 µM
same,GI50,K-562 leukemia,3.71 µM
same,TGI,K-562 leukemia,> 100 µM
same,GI50,UO-31 renal,4.63 µM
same,TGI,UO-31 renal,> 100 µM
same,GI50,OVCAR-5 ovarian,9.84 µM
same,TGI,OVCAR-5 ovarian,> 100 µM
same,GI50,SF-295 CNS,2.78 µM
same,TGI,SF-295 CNS,83.5 µM
same,GI50,TK-10 renal,9.77 µM
same,TGI,TK-10 renal,> 100 µM
same,GI50,HL-60(TB) leukemia,8.59 µM
same,TGI,HL-60(TB) leukemia,31.7 µM
same,GI50,NCI-H522 lung,13.4 µM
same,TGI,NCI-H522 lung,> 100 µM
same,GI50,LOX IMVI melanoma,4.84 µM
same,TGI,LOX IMVI melanoma,> 100 µM
same,GI50,SNB-75 CNS,26.6 µM
same,TGI,SNB-75 CNS,> 100 µM
same,GI50,MDA-MB-231 breast,11.2 µM
same,TGI,MDA-MB-231 breast,> 100 µM
same,GI50,UACC-257 melanoma,27.2 µM
same,TGI,UACC-257 melanoma,> 100 µM
same,GI50,COLO 205 colon,8.01 µM
same,TGI,COLO 205 colon,> 100 µM
same,GI50,SK-MEL-2 melanoma,17.3 µM
same,TGI,SK-MEL-2 melanoma,> 100 µM
same,GI50,OVCAR-4 ovarian,8.59 µM
same,TGI,OVCAR-4 ovarian,> 100 µM
same,GI50,ACHN renal,6.28 µM
same,TGI,ACHN renal,> 100 µM
same,GI50,NCI-H460 lung,3.39 µM
same,TGI,NCI-H460 lung,82.9 µM
same,GI50,HCC-2998 colon,12.8 µM
same,TGI,HCC-2998 colon,> 100 µM
same,GI50,U251 CNS,3.67 µM
same,TGI,U251 CNS,> 100 µM
same,GI50,A498 renal,18.8 µM
same,TGI,A498 renal,94.1 µM
same,GI50,OVCAR-3 ovarian,5.78 µM
same,TGI,OVCAR-3 ovarian,77.4 µM
same,GI50,NCI-H23 lung,11.1 µM
same,TGI,NCI-H23 lung,> 100 µM
same,GI50,SK-MEL-5 melanoma,7.56 µM
same,TGI,SK-MEL-5 melanoma,> 100 µM
same,GI50,HOP-92 NSCLC,7.47 µM
same,TGI,HOP-92 NSCLC,57 µM
